Assay results as given in patent publication US8067589B2, “Heterocyclic compounds useful in treating diseases and conditions” (Pfizer Inc, priority 2007, dated 2011).

These molecules were tested against human recombinant H-PGDS (Homo sapiens, UniProt O60760) (assay: Fluoresecence Intensity h-PGDSTBA Enzyme Assay). Conditions: 5.0 μM PGH2, 2.5 mM L-Glutathione, 10 min preincubation, 4-parameter fit, highest inhibitor concentration typically 1 μM.
Chain of human recombinant H-PGDS (O60760 whole entry): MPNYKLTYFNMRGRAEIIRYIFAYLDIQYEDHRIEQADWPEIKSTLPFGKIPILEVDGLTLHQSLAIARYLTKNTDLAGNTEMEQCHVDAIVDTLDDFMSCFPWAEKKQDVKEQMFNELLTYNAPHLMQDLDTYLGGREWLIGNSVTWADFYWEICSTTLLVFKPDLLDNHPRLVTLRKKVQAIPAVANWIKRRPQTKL

For “2-Phenyl-N-[1-(2,2,2- trifluoroethyl) piperidin-4-yl] pyrimidine-5- carboxamide [Example 9]”, which IC50 is on record?
The IC50 was 0.275 nM.

Same assay, conditions: IC50, 5.0 μM PGH2, 2.5 mM L-Glutathione, 10 min preincubation, 4-parameter fit, highest inhibitor concentration typically 1 μM

`CCC(CC)N1CCC(NC(=O)c2cnc(-c3cccc(F)c3)nc2)CC1` [Example 68, N-[1-(1-Ethylpropyl)piperidin-4-yl]-2-(3-fluorophenyl)pyrimidine-5-carboxamide] was tested. Which IC50 did it give?
The IC50 was 0.373 nM.

Which IC50 does the source give for `O=C(NC1CCN(C(COc2c(F)cccc2F)c2ccccc2)CC1)c1cnc(-c2cccc(F)c2)nc1` (stereo not drawn) [Example 30, N-{1-[2-(2,6-Difluorophenoxy)-1-phenylethyl]piperidin-4-yl}-2-(3-fluorophenyl)pyrimidine-5-carboxamide] here?
Its IC50 is 6.55 nM.

Which IC50 does the source give for `O=C(NC1CN(c2cnc3ccccc3n2)C1)c1cnc(-c2cccc(F)c2)nc1` [Example 105, 2-(3-Fluorophenyl)-N-(1-quinoxalin-2-ylazetidin-3-yl)pyrimidine-5-carboxamide] here?
Its IC50 is 0.364 nM.

How did the IC50 turn out when `CC(=O)c1ccccc1-c1ncc(C(=O)NC2CCN(CC(F)(F)F)CC2)cn1` [Example 119, 2-(2-Acetylphenyl)-N-[1-(2,2,2-trifluoroethyl)piperidin-4-yl]pyrimidine-5-carboxamide] was run?
Its IC50 is 9460 nM.

For `O=C(NC1CCN(Cc2ccccc2C(F)(F)F)C1=O)c1cnc(-c2cccc(F)c2)nc1` (stereo not drawn) [Example 84, 2-(3-Fluorophenyl)-N-{2-oxo-1-[2-(trifluoromethyl)benzyl]pyrrolidin-3-yl}pyrimidine-5-carboxamide], which IC50 is on record?
Its IC50 is 0.987 nM.

For `O=C(NC1CCN(C(COc2ccc(F)c(F)c2)c2ccccc2)CC1)c1cnc(-c2cccc(F)c2)nc1` (stereo not drawn) [Example 49, N-{1-[2-(3,4-Difluorophenoxy)-1-phenylethyl]piperidin-4-yl}-2-(3-fluorophenyl)pyrimidine-5-carboxamide], which IC50 is on record?
The IC50 was 6.26 nM.

Which IC50 does the source give for `CCOC(=O)N1CCC(NC(=O)c2cnc(-c3cccc(F)c3)nc2)C1` (single isomer, unassigned) [Example 82a, Ethyl 3-(2-(3-fluorophenyl)pyrimidine-5-carboxamido)pyrrolidine-1-carboxylate] here?
Its IC50 is 1.92 nM.

With `O=C(NC1CCN(Cc2ccccc2)CC1)c1cnc(-c2ccccc2)nc1O` [Example 19, N-(1-Benzylpiperidin-4-yl)-4-hydroxy-2-phenylpyrimidine-5-carboxamide] as the molecule, how does the IC50 read?
The IC50 was no less than 1000 nM.

With `O=C(NC1CCN(C(COc2cccc(F)c2F)c2ccccc2)CC1)c1cnc(-c2cccc(F)c2)nc1` (stereo not drawn) [Example 53, N-{1-[2-(2,3-Difluorophenoxy)-1-phenylethyl]piperidin-4-yl}-2-(3-fluorophenyl)pyrimidine-5-carboxamide] as the molecule, how does the IC50 read?
The IC50 was 59.2 nM.

For `O=C(NC1CCN(Cc2ccccc2)CC1)c1cnc(-c2ccccc2)nc1` [Example 12, N-(1-Benzylpiperidin-4-yl)-2-phenylpyrimidine-5-carboxamide], which IC50 is on record?
The IC50 was 0.428 nM.

Which IC50 does the source give for `Cc1nc(-c2ccccc2)ncc1C(=O)NC1CCN(CC2CCOCC2)CC1` [Example 7, 4-Methyl-2-phenyl-N-[1-(tetrahydro-2H-pyran-4-ylmethyl)piperidin-4-yl] pyrimidine-5-carboxamide] here?
Its IC50 is 30.4 nM.

With `CC(C)CN1CCC(NC(=O)c2cnc(-c3ccccc3)nc2)CC1` [Example 11, N-(1-Isobutylpiperidin-4-yl)-2-phenyl-pyrimidine-5-carboxamide] as the molecule, how does the IC50 read?
The IC50 was 0.381 nM.

How did the IC50 turn out when `O=C(NC1CCN(C(COc2ccc(F)cc2F)c2ccccc2)CC1)c1cnc(-c2cccc(F)c2)nc1` (stereo not drawn) [Example 47, N-{1-[2-(2,4-Difluorophenoxy)-1-phenylethyl]piperidin-4-yl}-2-(3-fluorophenyl)pyrimidine-5-carboxamide] was run?
Its IC50 is 10.2 nM.

How did the IC50 turn out when `COc1ccccc1OCC(c1ccccc1)N1CCC(NC(=O)c2cnc(-c3cccc(F)c3)nc2)CC1` (stereo not drawn) [Example 54, 2-(3-Fluorophenyl)-N-{1-[2-(2-methoxyphenoxy)-1-phenylethyl]piperidin-4-yl}pyrimidine-5-carboxamide] was run?
The IC50 was 6.13 nM.

`Cc1cc(=O)[nH]c(N2CCC(NC(=O)c3cnc(-c4cccc(F)c4)nc3)CC2)n1` [Example 70, 2-(3-Fluorophenyl)-N-[1-(4-methyl-6-oxo-1,6-dihydropyrimidin-2-yl)piperidin-4-yl]pyrimidine-5-carboxamide] was tested. Which IC50 did it give?
The IC50 was 0.962 nM.

For `CC(=O)N1CC[C@@H](NC(=O)c2cnc(-c3cccc(F)c3)nc2)C1` [Example 88, N-[(3R)-1-Acetylpyrrolidin-3-yl]-2-(3-fluorophenyl)pyrimidine-5-carboxamide], which IC50 is on record?
Its IC50 is 1.58 nM.

Which IC50 does the source give for `CC(C)CN1CCC(NC(=O)c2cnc(-c3ccccc3)nc2N)CC1` [Example 15, 4-Amino-N-(1-isobutylpiperidin-4-yl)-2-phenyl-pyrimidine-5-carboxamide] here?
Its IC50 is no less than 1000 nM.

`O=C(NC1CCN(Cc2ccc(OC(F)(F)F)cc2)CC1)c1cnc(-c2cccc(F)c2)nc1` [Example 36, 2-(3-Fluorophenyl)-N-{1-[4-(trifluoromethoxy)benzyl]piperidin-4-yl}pyrimidine-5-carboxamide] was tested. Which IC50 did it give?
The IC50 was 4.54 nM.

`O=C(NC1CCN(C(COc2ccccc2)c2ccccc2)CC1)c1cnc(-c2cccc(F)c2)nc1` (stereo not drawn) [Example 38, 2-(3-Fluorophenyl)-N-[1-(2-phenoxy-1-phenylethyl)piperidin-4-yl]pyrimidine-5-carboxamide] was tested. Which IC50 did it give?
The IC50 was 6.71 nM.

For `CN1CCc2nc(N3CC[C@H](NC(=O)c4cnc(-c5cccc(F)c5)nc4)C3)ncc2C1` [Example 78b, 2-(3-Fluorophenyl)-N-[(3S)-1-(6-methyl-5,6,7,8-tetrahydropyrido[4,3-d]pyrimidin-2-yl)pyrrolidin-3-yl]pyrimidine-5-carboxamide], which IC50 is on record?
Its IC50 is 1 nM.

For `O=C(NC1CCN(CC(F)(F)F)CC1)c1cnc(-c2cccc(F)c2)nc1` [Example 27, 2-(3-Fluorophenyl)-N-[1-(2,2,2-trifluoroethyl)piperidin-4-yl]pyrimidine-5-carboxamide], which IC50 is on record?
Its IC50 is 0.166 nM.

With `CC(C)N1CCC(NC(=O)c2cnc(-c3ccccc3)nc2O)CC1` [Example 24, 4-Hydroxy-N-(1-isopropylpiperidin-4-yl)-2-phenyl pyrimidine-5-carboxamide] as the molecule, how does the IC50 read?
The IC50 was no less than 1000 nM.

How did the IC50 turn out when `N#Cc1cccc(OCC(c2ccccc2)N2CCC(NC(=O)c3cnc(-c4cccc(F)c4)nc3)CC2)c1` (stereo not drawn) [Example 40, N-{1-[2-(3-Cyanophenoxy)-1-phenylethyl]piperidin-4-yl}-2-(3-fluorophenyl)pyrimidine-5-carboxamide] was run?
Its IC50 is 3.02 nM.

How did the IC50 turn out when `O=C(NC1CCN(CC(F)(F)F)CC1)c1cnc(-c2cc(F)ccc2F)nc1` [Example 73, 2-(2,5-Difluorophenyl)-N-[1-(2,2,2-trifluoroethyl)piperidin-4-yl]pyrimidine-5-carboxamide] was run?
Its IC50 is 1.84 nM.

How did the IC50 turn out when `O=C(NC1CCN(C(COc2cccc(Cl)c2)c2ccccc2)CC1)c1cnc(-c2cccc(F)c2)nc1` (stereo not drawn) [Example 41, N-{1-[2-(3-Chlorophenoxy)-1-phenylethyl]piperidin-4-yl}-2-(3-fluorophenyl)pyrimidine-5-carboxamide] was run?
Its IC50 is 10.2 nM.

`CCOC(=O)N1CCC(NC(=O)c2cnc(-c3ccccc3)nc2C)CC1` [Example 6, Ethyl 4-{[(4-methyl-2-phenylpyrimidin-5-yl)carbonyl]amino)} piperidine-1-carboxylate] was tested. Which IC50 did it give?
Its IC50 is 6.54 nM.

How did the IC50 turn out when `CCC(C)N1CCC(NC(=O)c2cnc(-c3cccc(F)c3)nc2)CC1` (stereo not drawn) [Example 69, N-(1-sec-Butylpiperidin-4-yl)-2-(3-fluorophenyl)pyrimidine-5-carboxamide] was run?
The IC50 was 3.59 nM.

Which IC50 does the source give for `Cc1cc(C)c(C#N)c(N2CC(NC(=O)c3cnc(-c4cccc(F)c4)nc3)C2)n1` [Example 103, N-[1-(3-Cyano-4,6-dimethylpyridin-2-yl)azetidin-3-yl]-2-(3-fluorophenyl)pyrimidine-5-carboxamide] here?
The IC50 was 0.815 nM.

How did the IC50 turn out when `O=C(NC1CN(c2nnnn2-c2ccccc2)C1)c1cnc(-c2cccc(F)c2)nc1` [Example 104, 2-(3-Fluorophenyl)-N-[1-(1-phenyl-1H-tetrazol-5-yl)azetidin-3-yl]pyrimidine-5-carboxamide] was run?
The IC50 was 0.706 nM.

`Cc1cc(CN2CCC(NC(=O)c3cnc(-c4cccc(F)c4)nc3)C2=O)ccc1F` (stereo not drawn) [Example 86, N-[1-(4-Fluoro-3-methylbenzyl)-2-oxopyrrolidin-3-yl]-2-(3-fluorophenyl)pyrimidine-5-carboxamide] was tested. Which IC50 did it give?
Its IC50 is 6.43 nM.

`Cc1nc(-c2ccccc2)ncc1C(=O)NC1CCN(C(C)C)CC1` [Example 1, N-(1-Isopropylpiperidin-4-yl)-4-methyl-2-phenylpyrimidine-5-carboxamide] was tested. Which IC50 did it give?
The IC50 was 162 nM.

How did the IC50 turn out when `O=C(NC1CCN(C(COc2c(F)ccc(Cl)c2F)c2ccccc2)CC1)c1cnc(-c2cccc(F)c2)nc1` (stereo not drawn) [Example 33, N-{1-[2-(3-Chloro-2,6-difluorophenoxy)-1-phenylethyl]piperidin-4-yl}-2-(3-fluorophenyl)pyrimidine-5-carboxamide] was run?
The IC50 was 15.5 nM.

`O=C(NC1CCN(Cc2ccc(C(F)(F)F)cc2)CC1)c1cnc(-c2cccc(F)c2)nc1` [Example 67, 2-(3-Fluorophenyl)-N-{1-[4-(trifluoromethyl)benzyl]piperidin-4-yl}pyrimidine-5-carboxamide] was tested. Which IC50 did it give?
Its IC50 is 30 nM.

Which IC50 does the source give for `O=C(NC1CCN(Cc2ccccn2)CC1)c1cnc(-c2ccccc2)nc1` [Example 8, 2-Phenyl-N-[1-(pyridin-2-ylmethyl)piperidin-4-yl] pyrimidine-5-carboxamide] here?
Its IC50 is 0.461 nM.

Which IC50 does the source give for `O=C(NC1CCN(CC2CCCC2)CC1)c1cnc(-c2cccc(F)c2)nc1` [Example 66, N-[1-(Cyclopentylmethyl)piperidin-4-yl]-2-(3-fluorophenyl)pyrimidine-5-carboxamide] here?
The IC50 was 0.355 nM.

Which IC50 does the source give for `CC(=O)c1cccc(-c2ncc(C(=O)NC3CCN(C(=O)C(C)(C)C)CC3)cn2)c1` [Example 142, 2-(3-Acetylphenyl)-N-[1-(2,2-dimethylpropanoyl)piperidin-4-yl]pyrimidine-5-carboxamide] here?
The IC50 was 64 nM.

With `CCc1ccc(OCC(c2ccccc2)N2CCC(NC(=O)c3cnc(-c4cccc(F)c4)nc3)CC2)cc1` (stereo not drawn) [Example 46, N-{1-[2-(4-Ethylphenoxy)-1-phenylethyl]piperidin-4-yl}-2-(3-fluorophenyl)pyrimidine-5-carboxamide] as the molecule, how does the IC50 read?
Its IC50 is 23.8 nM.

`O=C(NC1CCN(C(COc2cc(F)cc(F)c2)c2ccccc2)CC1)c1cnc(-c2cccc(F)c2)nc1` (stereo not drawn) [Example 34, N-{1-[2-(3,5-Difluorophenoxy)-1-phenylethyl]piperidin-4-yl}-2-(3-fluorophenyl)pyrimidine-5-carboxamide] was tested. Which IC50 did it give?
The IC50 was 6.46 nM.
